According to article PMC4949581 (ACS Chemical Biology, 2016):
Values belong to the compound of their own block, whether it stands above or below them.

What was measured:
Assay type in all cases: biochemical
TxGH116 β-glucosidase [1] = molecular target: T1, TxGH116 β-glucosidase (Thermoanaerobacterium xylanolyticum, UniProt F6BL85); assay: crystal structure
T1 sequence (F6BL85 19-806): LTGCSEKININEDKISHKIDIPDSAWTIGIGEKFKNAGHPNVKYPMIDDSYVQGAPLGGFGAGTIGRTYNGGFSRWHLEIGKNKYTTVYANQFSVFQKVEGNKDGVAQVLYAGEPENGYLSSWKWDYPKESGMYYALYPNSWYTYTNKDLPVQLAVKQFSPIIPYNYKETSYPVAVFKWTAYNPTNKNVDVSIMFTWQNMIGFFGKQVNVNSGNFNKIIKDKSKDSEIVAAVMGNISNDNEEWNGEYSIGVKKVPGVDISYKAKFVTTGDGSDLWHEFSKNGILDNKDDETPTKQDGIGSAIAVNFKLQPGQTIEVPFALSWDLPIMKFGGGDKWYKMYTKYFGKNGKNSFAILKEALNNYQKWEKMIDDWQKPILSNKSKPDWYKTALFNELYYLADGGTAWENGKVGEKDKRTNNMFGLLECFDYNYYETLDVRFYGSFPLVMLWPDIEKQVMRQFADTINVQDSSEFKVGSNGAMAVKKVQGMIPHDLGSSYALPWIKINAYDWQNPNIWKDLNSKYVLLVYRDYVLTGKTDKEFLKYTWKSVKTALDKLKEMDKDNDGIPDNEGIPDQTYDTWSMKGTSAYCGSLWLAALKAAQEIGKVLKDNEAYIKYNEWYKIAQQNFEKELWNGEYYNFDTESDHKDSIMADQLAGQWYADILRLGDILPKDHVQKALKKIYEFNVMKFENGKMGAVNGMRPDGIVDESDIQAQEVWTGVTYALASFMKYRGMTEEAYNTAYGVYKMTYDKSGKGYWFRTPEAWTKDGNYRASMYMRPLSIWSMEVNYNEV

TxGH116 β-glucosidase [2] = molecular target: T1, TxGH116 β-glucosidase; assay: crystal structure; remark: listed apart in the source
TxGH116 β-glucosidase [3] = molecular target: T1, TxGH116 β-glucosidase; assay: inhibition of 4NPGlc hydrolysis, Lineweaver–Burk
TxGH116 β-glucosidase [4] = molecular target: T1, TxGH116 β-glucosidase; assay: inactivation of the purified enzyme

Ki (TxGH116 β-glucosidase [1]): 0.13 ± 0.01 µM
Compound: OC[C@H]1NC[C@H](O)[C@@H](O)[C@@H]1O [DNJ, deoxynojirimycin]

Ki (TxGH116 β-glucosidase [2]): 4000 ± 300 µM
Compound: OC[C@H]1O[C@@H](O)[C@H](O)[C@@H](O)[C@@H]1O [Glc, D-glucose]

Ki (TxGH116 β-glucosidase [3]): 0.0029 ± 0.0001 µM
Compound: OC[C@H]1CNC[C@@H](O)[C@@H]1O [IFG, isofagomine]

Compound: OC[C@@H]1[C@@H](O)[C@H](O)[C@@H](O)[C@@H]2O[C@H]12 [cyclophellitol]
inactivation of the purified enzyme (TxGH116 β-glucosidase [4]): cyclophellitol, a related epoxide that contains a hydroxymethyl group corresponding to the hydroxymethyl group of glucose, rapidly inactivated TxGH116
